{"source": "patent US9073830B2", "about": "(Hyundai Pharm Co., Ltd., priority 2011, dated 2015)", "key": {"human 11β-HSD1": {"biological_target": "T1, human 11β-HSD1 (Homo sapiens, UniProt P28845)", "T1 construct": "100 ug/ml human/mouse liver microsomes; from tissue; host or cells: human liver microsomes", "T1 sequence (P28845 whole entry)": "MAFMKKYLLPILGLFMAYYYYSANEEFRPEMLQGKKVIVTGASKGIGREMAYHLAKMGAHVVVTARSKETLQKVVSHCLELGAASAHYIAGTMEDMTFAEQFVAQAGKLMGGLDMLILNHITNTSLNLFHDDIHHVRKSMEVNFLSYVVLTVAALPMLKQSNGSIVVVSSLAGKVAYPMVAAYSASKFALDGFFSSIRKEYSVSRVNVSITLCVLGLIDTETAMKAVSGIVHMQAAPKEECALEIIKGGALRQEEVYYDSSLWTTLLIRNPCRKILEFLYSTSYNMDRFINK", "test": "Enzyme activity analysis on human 11β-HSD1 (HTRF cortisol, liver microsomes)", "assay_type": "biochemical", "settings": "first value of cell", "experimental": "(§1) After culturing at 37° C. for 2 hours, 5 μl of cryptate-labeled anti-cortisol antibody and 5 μl of d2-labeled cortisol were added thereto. After further culturing at room temperature for 2 hours, a homogeneous time-resolved fluorescence (HTRF, Cisbio) signal was measured. From each analysis, based on a standard curve calculated using cortisols of several known concentrations, an amount of produced cortisol was tested.\n(§2) While an amount of cortisol, produced without the compound, was used as a control, an inhibition percentage by the test compound, at each concentration, was calculated. By using an inhibition curve calculated by coordinates of inhibition percentage to test compound concentration, an IC50 value of the compound on 11β-HSD1 was obtained."}, "mouse 11β-HSD1": {"biological_target": "T2, mouse 11β-HSD1 (Mus musculus, UniProt P50172)", "T2 construct": "100 ug/ml human/mouse liver microsomes; from tissue; host or cells: mouse liver microsomes", "T2 sequence (P50172 whole entry)": "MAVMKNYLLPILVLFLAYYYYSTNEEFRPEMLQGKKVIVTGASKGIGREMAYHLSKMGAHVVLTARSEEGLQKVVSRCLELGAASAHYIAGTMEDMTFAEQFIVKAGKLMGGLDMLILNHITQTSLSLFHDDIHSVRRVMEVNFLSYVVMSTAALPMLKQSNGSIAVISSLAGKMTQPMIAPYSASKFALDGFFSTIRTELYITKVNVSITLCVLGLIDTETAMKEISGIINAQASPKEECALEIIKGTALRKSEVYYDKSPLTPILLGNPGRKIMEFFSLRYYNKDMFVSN", "test": "Enzyme activity analysis on mouse 11β-HSD1 (HTRF cortisol, liver microsomes)", "assay_type": "biochemical", "settings": "second value of cell", "experimental": "as §1, §2"}}}
{"smiles": "NC(=O)C12CC3CC(C1)C(NC(=O)C1(NS(=O)(=O)c4cccc(Cl)c4Cl)CCCC1)C(C3)C2", "note": "(stereo not drawn) [compound 176, N-4-(1-(2,3-dichlorophenylsulfonamido)cyclopentanecarboxyamido)adamantane-1-carboxyamide]", "values": [{"measurement": "IC50", "setting": "human 11β-HSD1", "value": 0.009, "unit": "µM"}, {"measurement": "IC50", "setting": "mouse 11β-HSD1", "value": 0.007, "unit": "µM"}]}
{"smiles": "CC(C)(NS(=O)(=O)c1cccc(Cl)c1Cl)C(=O)NC1C2CC3CC1CC(O)(C3)C2", "note": "(stereo not drawn) [compound 73, N-(5-hydroxyadamantane-2-yl)-2-methyl-2-(2,3-dichlorophenylsulfonamido)propanamide]", "values": [{"measurement": "IC50", "setting": "human 11β-HSD1", "value": 0.017, "unit": "µM"}, {"measurement": "IC50", "setting": "mouse 11β-HSD1", "value": 0.042, "unit": "µM"}]}
{"smiles": "CC(C)(NS(=O)(=O)c1ccccc1Cl)C(=O)NC1C2CC3CC1CC(C(=O)NC1CCCCC1)(C3)C2", "note": "(stereo not drawn) [compound 233, 4-[2-(2-chloro-benzenesulfonylamino)-2-methyl-propionylamino]-adamantane-1-carboxylic acid cyclohexylamide]", "values": [{"measurement": "IC50", "setting": "human 11β-HSD1", "value": "> 2.5", "unit": "µM"}, {"measurement": "IC50", "setting": "mouse 11β-HSD1", "value": "> 2.5", "unit": "µM"}]}
{"smiles": "CN(C1(C(=O)NC2C3CC4CC2CC(C(N)=O)(C4)C3)CCC1)S(=O)(=O)c1ccccc1N", "note": "(stereo not drawn) [compound 222, N-4-(1-(N-methyl-2-aminophenylsulfonamido)cyclobutanecarboxyamido)adamantane-1-carboxyamide]", "values": [{"measurement": "IC50", "setting": "human 11β-HSD1", "value": 0.005, "unit": "µM"}, {"measurement": "IC50", "setting": "mouse 11β-HSD1", "value": 0.004, "unit": "µM"}]}
{"smiles": "CC(C)(NS(=O)(=O)c1cc(C(F)(F)F)cc(C(F)(F)F)c1)C(=O)NC1C2CC3CC(C2)CC1C3", "note": "(stereo not drawn) [compound 49, N-(adamantane-2-yl)-2-methyl-2-(3,5-ditrifluoromethylphenylsulfonamido)propanamide]", "values": [{"measurement": "IC50", "setting": "human 11β-HSD1", "value": 1.35, "unit": "µM"}, {"measurement": "IC50", "setting": "mouse 11β-HSD1", "value": "> 2.5", "unit": "µM"}]}
{"smiles": "CC(C)NC(=O)C12CC3CC(C1)C(NC(=O)C(C)(C)NS(=O)(=O)c1ccccc1Br)C(C3)C2", "note": "(stereo not drawn) [compound 228, 4-[2-(2-bromo-benzenesulfonylamino)-2-methyl-propionylamino]-adamantane-1-carboxylic acid isopropylamide]", "values": [{"measurement": "IC50", "setting": "human 11β-HSD1", "value": "> 2.5", "unit": "µM"}, {"measurement": "IC50", "setting": "mouse 11β-HSD1", "value": "> 2.5", "unit": "µM"}]}
{"smiles": "NC(=O)C12CC3CC(C1)C(NC(=O)C1(NS(=O)(=O)c4ccccc4N)CCCCC1)C(C3)C2", "note": "(stereo not drawn) [compound 220, N-4-(1-(2-aminophenylsulfonamido)cyclohexanecarboxyamido)adamantane-1-carboxyamide]", "values": [{"measurement": "IC50", "setting": "human 11β-HSD1", "value": 0.032, "unit": "µM"}, {"measurement": "IC50", "setting": "mouse 11β-HSD1", "value": 0.266, "unit": "µM"}]}
{"smiles": "CC(C)(NS(=O)(=O)c1ccc(-c2ccccc2)cc1)C(=O)NC1C2CC3CC(C2)CC1C3", "note": "(stereo not drawn) [compound 42, N-(adamantane-2-yl)-2-methyl-2-([1,1-biphenyl]-4-ylsulfonamido)propanamide]", "values": [{"measurement": "IC50", "setting": "human 11β-HSD1", "value": 1.8, "unit": "µM"}, {"measurement": "IC50", "setting": "mouse 11β-HSD1", "value": 1.7, "unit": "µM"}]}
{"smiles": "O=C(NC1C2CC3CC(C2)CC1C3)C1(NS(=O)(=O)c2ccccc2)CCC1", "note": "(stereo not drawn) [compound 139]", "values": [{"measurement": "IC50", "setting": "human 11β-HSD1", "value": 0.547, "unit": "µM"}, {"measurement": "IC50", "setting": "mouse 11β-HSD1", "value": 0.178, "unit": "µM"}]}
{"smiles": "CNC(=O)C12CC3CC(C1)C(NC(=O)C1(NS(=O)(=O)c4ccccc4Cl)CCC1)C(C3)C2", "note": "(stereo not drawn) [compound 238]", "values": [{"measurement": "IC50", "setting": "human 11β-HSD1", "value": "> 2.5", "unit": "µM"}, {"measurement": "IC50", "setting": "mouse 11β-HSD1", "value": "> 2.5", "unit": "µM"}]}
{"smiles": "CC(C)(NS(=O)(=O)c1ccc([N+](=O)[O-])cc1)C(=O)NC1C2CC3CC1CC(O)(C3)C2", "note": "(stereo not drawn) [compound 78, N-(5-hydroxyadamantane-2-yl)-2-methyl-2-(4-nitrophenylsulfonamido)propanamide]", "values": [{"measurement": "IC50", "setting": "human 11β-HSD1", "value": 0.692, "unit": "µM"}, {"measurement": "IC50", "setting": "mouse 11β-HSD1", "value": 1.21, "unit": "µM"}]}
{"smiles": "CN(C(C)(C)C(=O)NC1C2CC3CC1CC(C(N)=O)(C3)C2)S(=O)(=O)c1cccc(Cl)c1Cl", "note": "(stereo not drawn) [compound 198]", "values": [{"measurement": "IC50", "setting": "human 11β-HSD1", "value": 0.008, "unit": "µM"}, {"measurement": "IC50", "setting": "mouse 11β-HSD1", "value": 0.003, "unit": "µM"}]}
{"smiles": "CC(C)(NS(=O)(=O)c1ccc(Br)cc1OC(F)(F)F)C(=O)NC1C2CC3CC1CC(C(N)=O)(C3)C2", "note": "(stereo not drawn) [compound 100, N-4-(2-(2-trifluoromethoxy-4-bromophenylsulfonamido)-2-methylpropanamido)adamantane-1-carboxyamide]", "values": [{"measurement": "IC50", "setting": "human 11β-HSD1", "value": 0.018, "unit": "µM"}, {"measurement": "IC50", "setting": "mouse 11β-HSD1", "value": 0.21, "unit": "µM"}]}
{"smiles": "CC(C)(NS(=O)(=O)c1ccc(F)cc1)C(=O)NC1C2CC3CC(C2)CC1C3", "note": "(stereo not drawn) [compound 2, N-(adamantane-2-yl)-2-methyl-2-(4-fluorophenylsulfonamido)propanamide]", "values": [{"measurement": "IC50", "setting": "human 11β-HSD1", "value": 0.1, "unit": "µM"}, {"measurement": "IC50", "setting": "mouse 11β-HSD1", "value": 0.888, "unit": "µM"}]}
{"smiles": "CN(C(C)(C)C(=O)NC1C2CC3CC1CC(C(N)=O)(C3)C2)S(=O)(=O)c1cccc2cccnc12", "note": "(stereo not drawn) [compound 188, N-4-(2-methyl-2-(N-methylquinoline-8-sulfonamido)propanamido)adamantane-1-carboxyamide]", "values": [{"measurement": "IC50", "setting": "human 11β-HSD1", "value": 0.013, "unit": "µM"}, {"measurement": "IC50", "setting": "mouse 11β-HSD1", "value": 0.007, "unit": "µM"}]}
